In article PMC9030827, “In Vitro Effects of Mitochondria-Targeted Antioxidants in a Small-Cell Carcinoma of the Ovary of Hypercalcemic Type and in Type 1 and Type 2 Endometrial Cancer” (Biomedicines, 2022):

Assays:
Type in all cases: cell-based, human
Hec50co cells = experiment: Intracellular ROS/RNS assessment, DCFH-DA probe; settings: 10 μM, 2 h immediately after addition
Protocol: (§1) The assay for the evaluation of the levels of ROS/RNS was based on the work of Bak, et al.. All cell lines were cultured in black 96-well plates at a density of 5 × 10^4 cells/well and allowed to adhere for 24 h. After adherence, the cells were incubated with 2′,7′-dichlorodihydrofluorescein diacetate (DCFH-DA) (25 μM) for 1 h at 37 °C in the dark. The DCFH-DA probe allows the detection of intracellular ROS, more specifically H2O2, HO^● and ROO^●, and RNS, more specifically, ^●NO and ONOO^− [51]. The cells were then treated with 10 μM of either Mito6_TPP, Mito6_picol., or Mito6_isoq. The stress inducer H2O2 (200 μM) was used as the positive control. The fluorescence provided by the probe was measured immediately and every 5 min for 2 h at 37 °C using a BioTek Synergy HTX Multi-Mode Microplate Fluorimeter equipped with BioTek Gen5 Data Collection and Analysis Software (BioTek Instruments, Winooski, VT, USA) (excitation: 485 nm; emission: 530 nm).

Ishikawa cells = experiment: Intracellular ROS/RNS assessment, DCFH-DA probe; settings: 10 μM, 2 h immediately after addition
Protocol: as §1

[1] = test system: Ishikawa, Hec50co, COV434, and HFF-1 cells; experiment: Cell viability (MTT and NR assays), statements over all cell lines
Protocol: The Ishikawa, Hec50co, COV434, and HFF-1 cell lines were plated at a density of 5 × 10^4 cells/well in transparent 96-well plates. After 24 h, the cells were treated with Mito6_TPP, Mito6_picol., or Mito6_isoq. (0.01–100 μM) and incubated at 37 °C with 5% CO2 for 24, 48, or 72 h. […] The conditions of the methylthiazolyldiphenyl-tetrazolium bromide (MTT) assay were adapted from the work of Banerjee et al.. Briefly, MTT was added to a final concentration of 0.5 mg/mL, and the cells were incubated for 3 h at 37 °C with 5% CO2. After the 3 h, purple MTT formazan crystals were dissolved by agitation for 15 min in a solution of DMSO/isopropanol (ratio 3:1) and quantified spectrophotometrically at 540 nm. The neutral red (NR) assay conditions were based on the work developed by Repetto et al.. Briefly, after the incubation time, cells were incubated with NR at 40 μg/mL in an FBS-free cell medium for 3 h. The cells were then incubated with a solution of 50% ethanol (96% v/v), 49% deionized water, and 1% glacial acetic acid, with shaking for 15 min. The NR extracted from the cells was measured at 540 nm. […] For all assays, the absorbance was read using a BioTek Synergy HTX Multi-Mode Microplate Reader equipped with BioTek Gen5 Data Collection and Analysis Software (BioTek Instruments, Winooski, VT, USA).

SMILES: O=C(/C=C/c1ccc(O)c(O)c1)NCCCCCCCCCC[P+](c1ccccc1)(c1ccccc1)c1ccccc1 [Mito6_TPP]
- Intracellular ROS levels vs untreated cells (Hec50co cells): faster and more accentuated decrease in ROS levels
- Intracellular ROS levels vs untreated cells (Ishikawa cells): faster and more accentuated decrease in ROS levels
- Lowest concentration inducing a significant decrease in cell viability [1]: 1 µM
